{"source": "a melting point compilation (Tetko et al.; mined from patent text by program, amines drawn as free bases though some values may be those of a salt)", "data": [{"units": {"melting point": "°C"}, "values": [{"smiles": "CCCCCCCCCCc1ccc(C(=O)N(O)CCCC(=O)O)cc1", "melting point": "98 to 100"}, {"smiles": "CC(C)(C)OC(=O)C1CCCN(CO)c2c1cc(OCc1ccccc1)c1ccccc21", "note": "(stereo not drawn)", "melting point": "108 to 110"}, {"smiles": "Cc1c(C2=NNC(=O)SC2C)ccc2c1C(C)(C)C(=O)N2", "note": "(stereo not drawn)", "melting point": 279}, {"smiles": "O=C(O)CCc1c[nH]c2c(C(=O)c3ccccc3)cccc12", "melting point": 166}, {"smiles": "COc1ccccc1CNc1ccc2c(CNC(=O)c3ccc(F)cc3)cccc2n1", "melting point": 162}, {"smiles": "NS(=O)(=O)c1cc(NC(=O)c2cnn3c(C(F)(F)F)cc(-c4ccc(Cl)cc4)nc23)c(Cl)s1", "melting point": 329}, {"smiles": "CC1(C)CC(=O)NC2=C1c1ccc(Cl)cc1CC2", "melting point": 213}, {"smiles": "CCOc1nsc(N)c1C#N", "melting point": "216 to 217"}, {"smiles": "O=S(=O)(F)c1ccc(OCc2ccccc2)nn1", "melting point": "85 to 86"}, {"smiles": "COc1ccc2cc(-c3csc(Cc4c(Cl)cccc4Cl)n3)ccc2c1", "melting point": "136 to 138"}, {"smiles": "C#Cc1cccc(Nc2ncnc3cnc(NC(=O)/C=C/CN(C)C)cc23)c1", "melting point": "163 to 166"}, {"smiles": "CC(C)CCSC1C(O)C(CO)OC1n1ccc(=O)[nH]c1=O", "note": "(stereo not drawn)", "melting point": "66 to 67"}, {"smiles": "COc1cccc(C=O)c1OC(C)=O", "melting point": "75.4 to 76.2"}, {"smiles": "COc1ccc(C=C(C#N)c2ccccn2)cc1OC", "melting point": 112}, {"smiles": "CC(C)NC(=S)N1CCc2[nH]cnc2C1C1CCCCC1", "note": "(stereo not drawn)", "melting point": 218}, {"smiles": "Cn1nc(C(F)(F)F)c(CS(=O)(=O)C2=NOC(C)(C)C2)c1Cl", "melting point": "115 to 116"}, {"smiles": "CCc1nccc(NC(=O)Cc2ccc(Oc3ccc([N+](=O)[O-])cn3)cc2)c1Cl", "melting point": "128 to 131"}, {"smiles": "COc1ccc(S(=O)(=O)C2(C(=O)NO)CCN(Cc3ccc(-c4cccs4)cc3)CC2)cc1", "melting point": 166}, {"smiles": "O=C(NCCCO)c1cc(O)c(O)c([N+](=O)[O-])c1", "melting point": "160 to 163"}, {"smiles": "CCCCn1cc(C2CCN(Cc3ccc(OC)c(C(=O)O)c3)CC2)c2cccnc21", "melting point": "174 to 175"}, {"smiles": "CCN1CCN(CCCOc2cc3ncc(C#N)c(Nc4ccc(Sc5nccn5C)c(Cl)c4)c3cc2OCCOC)CC1", "melting point": "188 to 190"}, {"smiles": "Cc1cc2cc(C(=O)O)[nH]c2cc1C", "melting point": 266}, {"smiles": "CC(C)(C)OC(=O)Nc1ccc2c3c(cc([N+](=O)[O-])c2c1)N(C(=O)C(F)(F)F)CC3CCl", "note": "(stereo not drawn)", "melting point": "219 to 220"}, {"smiles": "Cc1nnc2c(Cl)nc3ccc(Cl)cc3n12", "melting point": "> 280"}, {"smiles": "COC(=O)c1cc2c(cn1)[nH]c1ccc(Oc3ccc([N+](=O)[O-])cn3)cc12", "melting point": "150 to 155"}, {"smiles": "COc1ccc(CCCC(=O)CCC(=O)O)cc1", "melting point": "88 to 89"}, {"smiles": "N#Cc1cnc2ccc(NC(=O)C#CCN3CCOCC3)cc2c1Nc1cccc(Br)c1", "melting point": "112 to 115"}, {"smiles": "Cn1nnnc1-c1cn(C)c2cc(Cl)ccc2c1=O", "melting point": "270 to 273"}, {"smiles": "NCCCOc1ccc(OCc2ccccc2)cc1", "melting point": 115}, {"smiles": "Cc1ccc(C2c3c(C)c(N4C(=O)c5ccccc5C4=O)c(C)c(C)c3OC2(C)C)cc1", "note": "(stereo not drawn)", "melting point": "222 to 224"}, {"smiles": "COCCCNc1c([N+](=O)[O-])cnc2ccccc12", "melting point": "93 to 95"}, {"smiles": "CCC(CC)(CC(=O)Nc1cccc(OCc2ccc3ccc(C(F)(F)F)cc3n2)c1)C(=O)O", "melting point": "85 to 86"}, {"smiles": "CC1(O[Si](C)(C)C(C)(C)C)CN(c2ccc(N3C[C@H](CO)OC3=O)cc2F)C1", "melting point": 144}, {"smiles": "CCCc1c(OCCCCCCC(=O)NCCCCc2cccnc2)ccc(C(C)=O)c1O", "melting point": "57 to 59"}, {"smiles": "COC(=O)C=Cc1ccc(-c2ccc(OC(F)(F)F)cc2)cc1", "melting point": "98 to 100"}, {"smiles": "CC(=O)Oc1ccc2ncc3c(c2c1)CCCC3", "melting point": "118 to 119"}, {"smiles": "COCCC(=O)c1cc(C(=O)OC)c(N)cc1C(F)(F)F", "melting point": "89 to 91"}, {"smiles": "CCOC(=O)c1cn(CC)c2ncncc2c1=O", "melting point": 136}, {"smiles": "Clc1cccc(C2=CCN(Cc3ccccc3)CC2)n1", "melting point": "100 to 102"}, {"smiles": "CC1CCCN(CC(C)N2c3ccccc3Sc3ccc(C(N)=S)cc32)C1", "note": "(mixture of isomers)", "melting point": 236}, {"smiles": "Cc1nnc2ccc(-c3ccsc3)nn12", "melting point": "154 to 156"}, {"smiles": "COC(=O)c1nccnc1NCc1ccncc1", "melting point": 95}, {"smiles": "COc1ccc2c(c1OCc1ccccc1)CC(C(=O)O)N(C(=O)C(c1ccc(Cl)cc1)c1ccc(Cl)cc1)C2", "note": "(racemic)", "melting point": "186 to 188"}, {"smiles": "Cc1ccc(S(=O)(=O)C2(CCCC#Cc3cccnc3)SC(=O)NC2=O)cc1", "note": "(stereo not drawn)", "melting point": "173 to 176"}, {"smiles": "CCC(=O)c1cc(-c2cccc(OCc3ccc(COC(=O)c4ccccc4)c(COC(=O)c4ccccc4)c3)c2)cs1", "melting point": 117}, {"smiles": "COCc1ccc(OC)c(Br)c1O", "melting point": "98 to 100"}, {"smiles": "CC(=O)Oc1cc(CCc2ccccc2)cc(OC(C)=O)c1", "melting point": "48 to 48.5"}, {"smiles": "Cn1c(I)nc2c(C(F)(F)F)nc(NCCc3ccccc3)nc21", "melting point": "139 to 142"}, {"smiles": "COc1ccc(Sc2nc(-c3ccc(OC)cc3)c(-c3ccc(OC)cc3)[nH]2)cc1", "melting point": 148}, {"smiles": "CC1(C)c2cc(NS(C)(=O)=O)ccc2CC2C1CCCN2CC1CCCCC1", "note": "(stereo not drawn)", "melting point": "214 to 217"}, {"smiles": "O=c1nc(-c2ccccc2)cnn1-c1cc(Cl)cc(Cl)c1", "melting point": "160 to 161"}, {"smiles": "CNS(=O)(=O)c1cc(-n2nc3ccc(Cl)cn3c2=O)c(F)cc1C#N", "melting point": "154 to 157"}, {"smiles": "CC(C)=CCCC(C)=CCCC(C)=CC=CC(C)=CC(=O)N(C)C", "melting point": "39 to 39.5"}, {"smiles": "C=CCOc1ccc(C#N)c(O)c1", "melting point": "134 to 136"}, {"smiles": "Cc1ccc2c(c1)C(CCCCOS(C)(=O)=O)C(=O)N2", "note": "(stereo not drawn)", "melting point": "89 to 90"}, {"smiles": "CCN1C(c2nnc(-c3ccccc3)o2)=C(OC(=O)C2CCCC2)c2ccccc2S1(=O)=O", "melting point": "194 to 196"}, {"smiles": "O=C(O)Cc1c(C(=O)c2cc3c(cn2)CCCC3)[nH]c2cc(Cl)ccc12", "melting point": 225}, {"smiles": "CC[C@H]1COC(=O)N1c1nc(-c2ccc(Br)cc2)cs1", "melting point": "138 to 140"}, {"smiles": "CO[C@@H]1CCCC(c2ccc(C(=O)N3Cc4cccn4Cc4ccccc43)cc2C)=C1C", "melting point": "127 to 128"}, {"smiles": "CCC1(CC(=O)O)OCCc2c1[nH]c1c(C(C)C)cccc21", "note": "(stereo not drawn)", "melting point": "158 to 159"}, {"smiles": "O=[N+]([O-])c1ccc(N2C3C4CCC(C4)C32)c2nnoc12", "note": "(stereo not drawn)", "melting point": "132 to 133"}, {"smiles": "O=C(Nc1cccc(-c2nnn[nH]2)c1)Oc1ccc([N+](=O)[O-])cc1", "melting point": "186 to 188"}, {"smiles": "COC(=O)c1ccc(Oc2c(C)n(CC(=O)O)c3ccc(Cl)cc23)cc1", "melting point": "196 to 197"}, {"smiles": "O=C(O)c1ccc(OCc2ccc(Cl)cc2)cc1OCc1ccccc1", "melting point": "150 to 152"}, {"smiles": "Cc1ccc(C(=O)CC(=O)C2CC2)c(S(C)(=O)=O)c1", "melting point": "129 to 131"}, {"smiles": "COc1ccc2c3c1CCCN3C(C)(C)C=C2C", "melting point": "87 to 88"}, {"smiles": "CC(C)(C)c1cc(SC(=S)NN)cc(C(C)(C)C)c1O", "melting point": 146}, {"smiles": "COc1ccccc1SC1CC(=O)N1", "note": "(stereo not drawn)", "melting point": "103 to 105"}, {"smiles": "CCCCN(CC)CC(=O)N1c2ccccc2N(C)C(=O)c2cncnc21", "melting point": "131 to 133"}, {"smiles": "CCCc1nc2c(N)nc3cc(OCc4c(C)noc4C)ccc3c2s1", "melting point": "178 to 180"}, {"smiles": "Nc1cc(-c2cc(=O)c(C(=O)O)cn2-c2ccc(F)cc2)ccc1O", "melting point": "231 to 233"}, {"smiles": "O=c1[nH]c2ncc(-c3ccc(O)cc3)nc2n1CC1CCCOC1", "note": "(stereo not drawn)", "melting point": "271 to 272"}, {"smiles": "CC(C)=NOCCCn1cnc2c(N)nc3cccnc3c21", "melting point": "120 to 121"}, {"smiles": "ICC1COc2ccccc2O1", "note": "(stereo not drawn)", "melting point": "38 to 40"}, {"smiles": "COP(=O)(CCC(C)(C)c1ccc(O)cc1O)OC", "melting point": "142 to 143"}, {"smiles": "Cc1ccc(NC(=O)c2cn(-c3ccccc3)c3ccccc3c2=O)nc1", "melting point": "248 to 250"}, {"smiles": "Fc1ccc(C2CC3CCC(C3)C23CO3)cc1", "note": "(stereo not drawn)", "melting point": "178 to 180"}, {"smiles": "Oc1ccc(Cl)cc1-n1c(=S)[nH]c2cc(C(F)(F)F)ccc21", "melting point": "248 to 250"}, {"smiles": "O=C(NCc1ccc(Cl)cc1)c1cnc2ccc(OCCO)cc2c1O", "melting point": "246 to 248"}, {"smiles": "Nc1ccc(C2=NNC(=O)Cc3cc4c(cc32)OCO4)c(Cl)c1", "melting point": "238 to 240"}, {"smiles": "C[C@@H](N[C@@H](Cc1c[nH]c2ccccc12)C(=O)O)[C@H](NC(=O)[C@@H](N)CC(N)=O)C(=O)O", "melting point": "65 to 70"}, {"smiles": "COc1ccccc1-c1cccc(-n2cnc3cc(C(O)C#N)ccc32)c1", "note": "(stereo not drawn)", "melting point": "116 to 124"}, {"smiles": "CC(=O)O[C@@H]1[C@H](OC(C)=O)[C@@H](C)O[C@H]1n1c(Cl)nc2c(Br)c(Cl)c(Cl)cc21", "melting point": "138 to 141"}, {"smiles": "Nc1ccccc1C(=O)c1ccc(F)cc1", "melting point": "125 to 127"}, {"smiles": "COC(=O)c1ccc(C(=O)C#Cc2cc(-c3cccs3)c(OC)cc2OC)cc1", "melting point": "198 to 200"}, {"smiles": "CN(C)C(=O)Nc1snc(S(C)(=O)=O)c1C#N", "melting point": "243 to 244"}, {"smiles": "CCOC(OCC)c1nc(N)nc(N)c1-c1ccc(Cl)cc1Cl", "melting point": 225}, {"smiles": "OCCOCC(O)c1ccc(OCc2ccccc2)cc1", "note": "(stereo not drawn)", "melting point": "116 to 117"}, {"smiles": "CN(C)n1cc(-c2ccccc2)c(=O)c(-c2ccccc2)c1", "melting point": 143}, {"smiles": "CCOc1cc2c(cc1OCC)C(C(S)(C#N)c1ccccc1)=NCC2", "note": "(stereo not drawn)", "melting point": "118 to 119"}, {"smiles": "O=C1CCN(CCc2ccccc2)CC1C(c1ccccc1)c1ccccc1", "note": "(stereo not drawn)", "melting point": "73 to 76"}, {"smiles": "CN(C)CCNC1=CC(=O)c2nc(-c3cc(F)ccc3F)oc2C1=O", "melting point": "162 to 163"}, {"smiles": "NNC(=O)N(O)Cc1ccc(OCc2csc(-c3ccccc3)n2)cc1", "melting point": "144 to 145"}, {"smiles": "C=C(C)COc1cc(OC)cc(C(=O)OC)c1", "melting point": "159 to 161"}, {"smiles": "COc1cc(-c2nc(C)c(C(=O)O)s2)cc(OC)c1OC", "melting point": "205 to 207"}, {"smiles": "CC(=O)OC[C@H]1CCn2c(c(C3=C(c4cn(C)c5ccccc45)C(=O)NC3=O)c3ccccc32)C1", "melting point": "238 to 241"}, {"smiles": "Cc1nc(C)c(Cl)c(NCc2ccc(Oc3ccc4ncc([N+](=O)[O-])n4n3)cn2)n1", "melting point": "194 to 198"}, {"smiles": "CCn1cc(C(=O)O)c(=O)c2cc(F)c(-c3cc(C)nc(C)c3)cc21", "melting point": "> 310"}, {"smiles": "O=C(CCCCCCOc1ccc(-c2ccccc2)cc1)NO", "melting point": "147 to 149"}, {"smiles": "N#CCC(=O)c1cccn1Cc1ccccc1", "melting point": "119 to 120"}, {"smiles": "O=CCC1Cc2cc(F)c(F)cc2C1=O", "note": "(racemic)", "melting point": "78 to 81"}, {"smiles": "NC(=O)N(O)Cc1cc(Br)cs1", "melting point": "162 to 164"}, {"smiles": "Cn1cc(C#N)c([N+](=O)[O-])n1", "melting point": "85 to 87"}]}]}
